The test system of the assay is human melanoma cell line A-2058. Kind of assay: MTT cell proliferation assay, human melanoma cell line A-2058. In kind it is cell-based. The following applies: for Mean OD: MTT Optical Density at 570 nm. The source says:
This example describes the in vitro bioassay used for determining the anti-proliferative activity of test compounds and cyclodextrin-encapsulated propolis complexes against human skin cancer cell lines. The present example tests anti-proliferative efficacy against the human melanoma cell line, A-2058. The cyclodextrin-encapsulated propolis complexes tested are those described in Example 1. The NZ propolis was the same propolis used to manufacture the cyclodextrin complexes CD1-CD3. The Brazilian Green propolis was the same propolis used to manufacture the cyclodextrin complex CD4. The test samples were dissolved in 15% Ethanol (EtOH)/HBSS to make a working solution, which was then diluted 10 times to give a final concentration in the cells of 50 μg/ml unless indicated otherwise.
The three human skin cancer cell lines were: • 1) Human Melanoma cell line (A-2058). • 2) Human Epidermoid (Squamous) Carcinoma cell line (A-431). • 3) Human Basal Cell Carcinoma cell line (TE 354.T).
The cell lines were revived from cryostorage and cultured in the presence of the test and reference samples. An MIT assay was then performed on the cultures to determine the effect of the samples on the cell viability and proliferation. The percentage standard error of the mean was assessed and extreme outliers were removed if the SEM%>15. Preliminary statistical significance was assessed with an independent Student t-test at α<0.05 (with and without outliers). The methodology was based on the procedures reported by: • Ahn, N G, Campbell J S (1993). […] Proc Natl Acad Sci. 90: 5143-5147. • Galan-Cobo, A et al (2014). Functional inhibition of aquaporin-3 with a gold-based compound induces blockage of cell proliferation. J Cellul. Physiol. 229: 1787-1801. • Roomi, M W, Kalinovsky, J et al (2013) Effect of a nutrient mixture on matrix metalloproteinase-9 dimers in various human cancer cell lines. Inter 3 Oncol. 44: 936-942. • Huang, H C, Lin, M K et al (2013). Cardenolides and bufadienolide glycosides from Kalanchoe tubiflora and evaluation of cytotoxicity. Planta Medica. 79: 1362-1369. • Tilli, C M L J, Stavast-Kooy, A J W et al (2003). The garlic-derived organosulfur component ajoene decreases basal cell carcinoma tumor size by inducing apoptosis. Arch Dermatol Res. 295: 117-123.
• 1. Human melanoma cell line (A-2058, ATCC CRL11147) was obtained from ATCC, Bethesda, Md., USA. • 2. Human squamous (epidermoid) carcinoma cell line (A-431, ATCC CRL1555) was obtained from ATCC, Bethesda, Md. USA. • 3. Human basal cell carcinoma cell line (TE 354.T, ATCC CRL7762) was obtained from ATCC, Bethesda, Md., USA. • 4. Dulbecco's Modified Eagle's Medium (DMEM) was obtained from GIBCO (12100-038). 10% Foetal Bovine Serum (FBS), 100 U/ml Penicillin and […] Streptomycin were added before use. • 5. Penicillin-streptomycin solution, stored at −20° C. consisting of 10000 units/ml penicillin and 10 mg/ml streptomycin in 0.9% NaCl was obtained from Sigma (#P-0781). • 6. Trypsin-EDTA solution consisting of 0.25% Trypsin/EDTA was obtained from Invitrogen (#15400054). • 7. Phosphate buffered saline (PBS) was prepared in-house. • 8. Hanks Balanced Salt Solution (HBSS), stored at 4° C. was obtained from GIBCO (#14185-052). • 9. Foetal Bovine Serum (FBS) stored at −20° C. was obtained from GIBCO (#10091-148). • 10. MTT Reagent, 100 mg/vial, was obtained from Sigma (M-2128) and then dissolved in PBS at 10 mg/ml and stored at −20° C. A 5 mg/ml MTT solution was prepared in PBS and stored at 4° C. as the working solution. • 11. MU lysis buffer: 10% sodium dodecyl sulphate (SDS)/45% Dimethyl Formamide was prepared by dissolving 20 g SDS in 100 ml of double-distilled water (DDW), and then adding 90 ml of Dimethyl Formamide to the solution. The pH was adjusted to 4.7 by glacial acetic acid, and DDW added up to a final volume of 200 ml. • 12. 5-Fluorouracil (5-FU) was supplied by Sigma (F-6627). Three working solutions were prepared at 19.5 μg/ml. 6.5 μg/ml and 1.95 μg/ml dissolved in 15% Ethanol/HBSS. […]

In general, inhibition refers to the percentage by which the read-out fell short of the control. A higher inhibition goes with strong suppression.

As to `O=c1[nH]cc(F)c(=O)[nH]1` [5-fluorouracil, reference compound], the “Mean OD” value is given as 0.1937 (A-2058, 0.195 μg/ml); 0.1832 (A-2058, 0.65 μg/ml); 0.1847 (A-2058, 1.95 μg/ml). For the setting “Homo sapiens, A2058, 24 h, A-2058, final conc. 0.195 μg/ml, 24 hr incubation, vs cells only”, this compound displayed an inhibition at 0.195 µg/mL of 3.73%. Further, the inhibition at 0.65 µg/mL (Homo sapiens, A2058, 24 h, A-2058, final conc. 0.65 μg/ml, 24 hr incubation, vs cells only) was 8.99%. The inhibition at 1.95 µg/mL (Homo sapiens, A2058, 24 h, A-2058, final conc. 1.95 μg/ml, 24 hr incubation, vs cells only) stood at 8.25%.

Source of the values: patent US20170209499A1, “Propolis and Extracts Thereof for the Treatment of Skin Cancers and Improvement of Skin Health” (Manuka Health New Zealand Limited, priority 2014, published 2017).
